Reference: publication PMC8451667 (Emerging Microbes & Infections, 2021)
Where two headings read alike, the source gives them in different places.

Experiments:
[1] = tested on: A/California/04/2009 (H1N1) Ca/04; assay: microbe, parasite or virus in culture; type: cell-based; conditions: Influenza A virus
[2] = tested on: A/California/07/2009 (H1N1); assay: microbe, parasite or virus in culture; type: cell-based, Influenza A virus
[3] = tested on: Ca/04 OsR (A/California/04/2009 (H1N1)-H275Y); design: species or system mice; conditions: mouse, in vivo
[4] = H1N1, read-out: EC50 (μM), A/California/04/2009 (H1N1) Ca/04

| SMILES | EC50 [1, 4] [µM] | EC50 increase at passage 6 [2] [fold] | EC50 ([2]; Influenza A virus, H1N1, read-out: EC50 (μM), serial passage) [µM] | Body weight loss [3] [%] | Survival [3] [%] | Clinical signs ([3]; ip) | EC50 ([1]; H1N1, read-out: EC50 (nM), A/California/04/2009 (H1N1) Ca/04) [µM] |
| --- | --- | --- | --- | --- | --- | --- | --- |
| [2H]C(NC12CC3CC(CC(O)(C3)C1)C2)c1ccc(I)s1 (stereo not shown) [UAWJ280, 3-{[(5-iodothiophen-2-yl)(D)methyl]amino}adamantan-1-ol] | 0.27 ± 0.04 | 7 | 0.27 | ~15 | 65 | mild clinical signs |  |
| CCC(CC)O[C@@H]1C=C(C(=O)O)C[C@H](N)[C@H]1NC(C)=O [Oseltamivir carboxylate] |  |  |  |  |  |  | 0.0014 ± 0.00032 |
| CCOC(=O)C1=C[C@@H](OC(CC)CC)[C@H](NC(C)=O)[C@@H](N)C1 [Oseltamivir, Oseltamivir phosphate, reference compound] |  |  |  | ~20 | 16 |  |  |
| NC12CC3CC(CC(C3)C1)C2 [Amantadine] | > 20 |  |  |  |  |  |  |
